Literature values in patent publication US9814623B2, “Antimicrobial gas impregnating devices and methods” (ENOX (ISRAEL) LTD., priority 2007, dated 2017).

Key:
Escherichia coli = settings: exogenous gNO at 200 ppm for extended periods of time
Staphylococcus aureus = settings: exogenous gNO at 200 ppm for extended periods of time
Pseudomonas aeruginosa = settings: exogenous gNO at 200 ppm for extended periods of time
[1] = system: nosocomial pneumonia caused by microbial pathogens such as S. aureus and P. aeruginosa; settings: exogenous gNO at 200 ppm
Candida albicans = settings: exogenous gNO at 200 ppm for extended periods of time
[2] = system: cultured human dermal fibroblasts; settings: exogenous gNO at 200 ppm for extended periods of time
Group B Streptococcus = settings: exogenous gNO at 200 ppm for extended periods of time
[3] = system: infections after tympanostomy tube placement; settings: otic drops after tympanostomy tube placement

Compound	growth of Escherichia coli (Escherichia coli)	growth of Staphylococcus aureus (Staphylococcus aureus)	growth of Pseudomonas aeruginosa (Pseudomonas aeruginosa)	time to clear nosocomial pneumonia pathogens [1]	growth of Candida albicans (Candida albicans)	cytotoxic effects on cultured human dermal fibroblasts [2]	growth of Group B Streptococcus (Group B Streptococcus)	incidence of infection [3]
[N]=O [gNO, nitric oxide]	inhibited and prevented the growth	inhibited and prevented the growth	inhibited and prevented the growth	about 6 hours	inhibited and prevented the growth	without any cytotoxic effects	inhibited and prevented the growth	–
Gentamicin	–	–	–	–	–	–	–	significantly reduced
